Laboratory results reported in publication PMC3441724, “Mechanistic Insights into Validoxylamine A 7'-Phosphate Synthesis by VldE Using the Structure of the Entire Product Complex” (PLoS ONE, 2012).

Assays:
VldE = biological target: T1, VldE (Streptomyces hygroscopicus, UniProt Q15JG1); assay: X-ray crystal structure; type: binding; settings: ternary complex with GDP, pH 8.0, open conformation
T1 construct: (His)6-tagged full-length protein, 497 residues per monomer, expressed in E. coli BL21(DE3) pLysS; homodimer; residues 1, 2 and 482-497 not modelled
T1 sequence (Q15JG1 1-497): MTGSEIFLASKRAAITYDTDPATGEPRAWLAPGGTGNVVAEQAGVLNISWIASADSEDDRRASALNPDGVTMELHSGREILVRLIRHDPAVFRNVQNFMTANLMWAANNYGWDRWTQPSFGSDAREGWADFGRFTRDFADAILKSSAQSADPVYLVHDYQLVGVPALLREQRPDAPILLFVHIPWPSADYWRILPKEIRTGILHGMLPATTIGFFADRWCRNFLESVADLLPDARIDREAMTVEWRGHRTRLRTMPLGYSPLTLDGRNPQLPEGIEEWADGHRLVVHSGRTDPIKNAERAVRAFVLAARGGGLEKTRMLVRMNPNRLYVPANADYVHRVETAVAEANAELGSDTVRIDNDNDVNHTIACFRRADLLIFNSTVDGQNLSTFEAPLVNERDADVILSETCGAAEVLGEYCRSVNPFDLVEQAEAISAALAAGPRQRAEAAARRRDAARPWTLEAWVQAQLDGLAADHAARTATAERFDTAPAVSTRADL

[1] = biological target: the molecule itself; assay: crystal structure; sitting drop vapor diffusion, 293 K, Tris-HCl pH 8.0 with polyethylene glycol 3,350; two monomers modeled within the asymmetric unit (apo, GDP, GDP+VDO), six monomers in VldE•GDP•TRE

For `OC[C@H]1O[C@H](O[C@H]2O[C@H](CO)[C@@H](O)[C@H](O)[C@H]2O)[C@H](O)[C@@H](O)[C@@H]1O` [TRE, trehalose], the X-ray crystal structure (VldE; 2.81 Å, 3% trehalose, 1 mM GDP, 20 mM MgCl2, cyclitol binding sites, bound in two of six monomers) was “structure of VldE in complex with both GDP and trehalose (VldE•GDP•TRE)”.

For `O=P(O)(O)OC[C@H]1C[C@H](N[C@H]2C=C(CO)[C@@H](O)[C@H](O)[C@H]2O)[C@H](O)[C@@H](O)[C@@H]1O` [VDO, validoxylamine A 7′-phosphate], the X-ray crystal structure (VldE; 2.11 Å, crystal soaked with 5 mM GDP and 10 mM VDO, cyclitol (donor and acceptor) sites) was “The first crystallographic structure of VldE in complex with the entirety of its products”.

B1: VldE from S. hygroscopicus subsp. limoneus (enzyme)
chain: T1 sequence (Q15JG1 1-497)
notes: VldE, pseudo-glycosyltransferase of Streptomyces hygroscopicus subsp. limoneus; 994 possible residues for two monomers (497 each); the apo model lacks residues 1, 2 and 482-497; also called pseudo-glycosyltransferase VldE; (His)6-tagged VldE
B1: binds [1].
